# “And” between values parts separate entries of the source, which are not always exact repeats. Identical values can stand only once. Marks after values point to notes of the source that are not given here.
# Tests used:
# Spodoptera frugiperda = experiment: Maize leaf fall armyworm damage assay after seed treatment (feeding damage and FAW mortality); assay type: in vivo; set-up: Regression for feeding damage by leaf segment, Leaf 3 Middle / Regression for feeding damage by leaf segment, Leaf 3 Tip / Regression for feeding damage by leaf segment, Leaf 4 Middle / Regression for feeding damage by leaf segment, Leaf 4 Tip / Regression for feeding damage by leaf segment, Leaf 5 Middle / Regression for feeding damage by leaf segment, Leaf 5 Tip: unit not given here; conditions: for Regression for feeding damage by leaf segment, Leaf 3 Middle / Regression for feeding damage by leaf segment, Leaf 3 Tip / Regression for feeding damage by leaf segment, Leaf 4 Middle / Regression for feeding damage by leaf segment, Leaf 4 Tip / Regression for feeding damage by leaf segment, Leaf 5 Middle / Regression for feeding damage by leaf segment, Leaf 5 Tip: coefficient vs Baseline; for Regression for FAW mortality rate (coefficient) / Regression for overall feeding damage (coefficient): vs Baseline, controls for experimental run and tray location; for Regression for FAW mortality rate (coefficient): across six leaf segments per plant; for Regression for overall feeding damage (coefficient): averaged across six leaf segments per plant
# Method: An experiment was designed to measure any systemic effects of soil protists in the presence and absence of (agrochemical) insecticide on pest damage resistance for plants grown from seeds. The experiments consisted of two stages: the growth stage and the pest stage. In the growth stage, maize seeds were treated individually with one of six mixtures containing bacteria, protists, and or/agrochemicals. All treatments included heat-killed bacteria, the food source for protists (protozoa). Additional potential components of each treatment were one of two agrochemicals, or soil protists, or one of two agrochemicals plus soil protists (Table 1). Treated seeds were germinated and grown in soil-filled pots in a greenhouse. Plants were grown in surplus quantities and down-selected to 48 representative plants per treatment for each experimental run (Table 2).
# In the pest stage, three individual leaves were harvested from each plant, then the Tip and Middle segments of said leaves were collected. Each of the six leaf segments from the plant were placed in individual tray wells and challenged by a single insect larva, as explained further below.
# Formulations for seed treatments (Table 1) were prepared in Page's Saline 24 h prior to inoculation and held at 23° C. in darkness. Prior to application, each formulation was vortexed for 30 sec then a small aliquot (50 μL) was added directly on top of each exposed seed during planting. Based on our prior experience, this small-volume-aliquot performs similarly to more conventionally formulated seed coatings, enabling early-stage screening of experimental formulations that are available only in limited quantities.
# For each experimental run, 240 pots (10-cm, TLC Square Form Pots, HC Companies) were first filled with dry, steam pasteurized screened field soil (Kalamazoo, Michigan; Coloma loamy sand). The soil was misted with water with an automated system to reach field capacity in the Corteva Agriscience greenhouse located in Indianapolis, IN for at least 4 d prior to planting. Next, 3.8 cm deep, 2 cm wide holes were created in the center of each soil-filled pots, and a single seed was placed tip cap side down 3.8 cm below the soil surface. Each seed was immediately inoculated with a seed treatment (described above, n=60 per treatment). Treated pots were then randomized in the greenhouse to reduce systematic error (FIG. 1A). The greenhouse averaged 23° C. (maximum of 30° C. day and minimum of 19° C. at night). The plants received 100 mL water from the automated system, split over 49 passes, during the first week after planting, and 200 mL water split over 98 passes during the second week after planting.
# Leaf segments were harvested on 48 representative plants selected from the 60 pots per treatment (FIG. 1A). Trays were filled in a semi-random fashion with less optimal plants at the end of tray 3 and the most underdeveloped plants being discarded. Plants were numbered as they were selected during the Leaf 3 harvest, and tracked through the harvest of Leaves 4 and 5 for robustness. Maize leaves are labelled according to the order they sprout. Maize was allowed to grow for 10 d before harvesting Leaf 3 and left for another 4 d (14 d total) before harvesting Leave 4, 5 (FIG. 1B). Leaves were segmented with the distal 3.8 cm labelled as Tip. Leaf Middle segments were harvested as a 3.8-cm segment from the middle of the leaf. For smaller leaves (such as the earlier-harvested Leaf 3), the Middle abutted the Tip. For larger leaves (4th and 5th), any section between Tip and Middle segments was discarded. For agrochemicals which translocate, such as those tested here, the agrochemical accumulates in the leaf Tips. By testing both leaf Tip and Middle, the relative amount of agrochemical moved by phloem or xylem transport since the leaf sprouted can be measured (Tip) along with the agrochemical in the process of transportation during harvest (Middle). […]
# [1] = Transport of 14C-labeled Chlorantraniliprole in maize (autoradiography, combustion analysis); conditions: maize (Zea mays L.), in vivo, 7 d
# Method: A scaled-up version of the μ-rhizoslide was developed to work with maize. First, ^14C-labeled agrochemical was dissolved in acetone, spiked onto the wall of a glass sample vial, and the acetone evaporated. Un-radiolabeled agrochemical formulation was then added to the vial and sonicated for 20 min to distribute the ^14C-labeled material into the formulation. The formulation was then mixed with Page's Saline containing heat-killed E. coli, or with Page's Saline containing both protists and heat-killed E. coli to prepare the seed treatments formulation. As described before, the ^14C-labeled seed treatment formulations were allowed to rest in darkness for 24 h prior to application. Final radioactivity was measured at approximately 300,000 DPM per individual seed treatment. Pots were filled, and seeds planted and treated as described above. Plants were harvested at 1 week due to restricted space for work with radiolabeled material. […]
# A similar experiment was conducted using ^14C-labeled Chlorantraniliprole, differing in the allocated growth period (7 vs 14 d), watering schedule (due to limitations of radioactive containment), and pot (3D printed device optimized for radio-detection vs traditional 4.5″ pot). Radioactivity in both the plant material and the soil were measured before combustion analysis was conducted on the plant material.
# UC-1 cultures = experiment: Screen of candidate formulations for operational toxicity to UC-1 cultures; conditions: concentrated formulation
# Excerpt: Finally, candidate formulations were screened for operational toxicity to UC-1 cultures (i.e., live protists in a concentrated formulation should remain viable and actively moving). […] Both agrochemicals were used in their like-commercial formulations, which is a proprietary blend containing biocides and other ingredients needed to keep the agrochemical suspended and maintain performance.
# [2] = Table 6 (Chlorantraniliprole data set)
molecule,measurement,setting,value
Spinosad,"Regression for feeding damage by leaf segment, Leaf 3 Middle",Spodoptera frugiperda; Table 7 (Spinosad data set),−45.225***
same,"Regression for feeding damage by leaf segment, Leaf 3 Tip",Spodoptera frugiperda; Table 7 (Spinosad data set),−59.140***
same,"Regression for feeding damage by leaf segment, Leaf 4 Middle",Spodoptera frugiperda; Table 7 (Spinosad data set),−40.880***
same,"Regression for feeding damage by leaf segment, Leaf 4 Tip",Spodoptera frugiperda; Table 7 (Spinosad data set),−59.365***
same,"Regression for feeding damage by leaf segment, Leaf 5 Middle",Spodoptera frugiperda; Table 7 (Spinosad data set),−10.627***
same,"Regression for feeding damage by leaf segment, Leaf 5 Tip",Spodoptera frugiperda; Table 7 (Spinosad data set),−29.736***
same,"Reduction of feeding damage from Baseline, Leaf 4 Tip",Spodoptera frugiperda; in vivo,58.5 percentage points
same,"Reduction of feeding damage from Baseline, Leaf 5 Middle",Spodoptera frugiperda; in vivo,9.5 percentage points
same,"Feeding damage, Leaf 4 Tip",Spodoptera frugiperda; leaf harvested 14 d,~35.0%
same,"Feeding damage, Leaf 5 Middle",Spodoptera frugiperda; leaf harvested 14 d,~82.2%
same,Regression for FAW mortality rate (coefficient),Spodoptera frugiperda,33.342***
same,Regression for overall feeding damage (coefficient),Spodoptera frugiperda,−39.981***
"CNC(=O)c1cc(Cl)cc(C)c1NC(=O)c1cc(Br)nn1-c1ncccc1Cl [Chlorantraniliprole, chlorantraniliprole]",Distribution of 14C-labeled Chlorantraniliprole in plant parts,[1],"higher concentration of Chlorantraniliprole in earlier parts (stem, Leaf 1)"
same,"Regression for feeding damage by leaf segment, Leaf 3 Middle",Spodoptera frugiperda; [2],−36.100***
same,"Regression for feeding damage by leaf segment, Leaf 3 Tip",Spodoptera frugiperda; [2],−65.841***
same,"Regression for feeding damage by leaf segment, Leaf 4 Middle",Spodoptera frugiperda; [2],−6.424**
same,"Regression for feeding damage by leaf segment, Leaf 4 Tip",Spodoptera frugiperda; [2],−46.026***
same,"Regression for feeding damage by leaf segment, Leaf 5 Middle",Spodoptera frugiperda; [2],−2.566
same,"Regression for feeding damage by leaf segment, Leaf 5 Tip",Spodoptera frugiperda; [2],−34.783***
same,"Reduction of feeding damage from Baseline, Leaf 4 Middle",Spodoptera frugiperda; in vivo,7.2 percentage points
same,"Reduction of feeding damage from Baseline, Leaf 5 Middle",Spodoptera frugiperda; in vivo,3.5 percentage points
same,"Feeding damage, Leaf 4 Middle",Spodoptera frugiperda; leaf harvested 14 d,86% and 86.4%
same,"Feeding damage, Leaf 4 Tip",Spodoptera frugiperda; leaf harvested 14 d,49%
same,"Feeding damage, Leaf 5 Middle",Spodoptera frugiperda; leaf harvested 14 d,88%
same,Regression for FAW mortality rate (coefficient),Spodoptera frugiperda,20.341***
same,Regression for overall feeding damage (coefficient),Spodoptera frugiperda,−31.836***
same,Operational toxicity to UC-1 cultures (live protists remain viable and actively moving),UC-1 cultures,satisfied all criteria

# From patent publication US20250185666A1, “Root-Targeted Delivery of Agrochemicals using Natural Microbial Carriers” (priority 2023, published 2025)
